Reference: patent US12065421B2, “Inhibitors of oplophorus luciferase-derived bioluminescent complexes” (priority 2018, dated 2024)

target: T1, NanoBiT® HiBiT non-luminescent peptide and LgBiT non-luminescent polypeptide (HiBiT/LgBiT bioluminescent complex) (Oplophorus gracilirostris, UniProt Q9GV45, A31E/A60N/A81I/C191F/D135N/E192K/F58L/F95D/G184S/G42A/G62A/G78A/G94A/G98A/H120P/I103V/I117V/I134L/K70R/L176M/L195S/L54V/L73R/L99Q/M102E/N171T/N193K/P142E/Q151K/Q38E/Q45L/T186S/V71I/Y165I); test: biochemical
T1 construct: fused on or other part: N-terminal Met-Val on LgBiT in place of the signal peptide (residues 1-27); The chain is split between residues 184 and 185 into LgBiT and the 11-residue HiBiT peptide (residues 185-195); C-terminal A196 is absent
T1 sequence (Q9GV45 other isoform, or with tags, fused parts or gaps with the stated changes): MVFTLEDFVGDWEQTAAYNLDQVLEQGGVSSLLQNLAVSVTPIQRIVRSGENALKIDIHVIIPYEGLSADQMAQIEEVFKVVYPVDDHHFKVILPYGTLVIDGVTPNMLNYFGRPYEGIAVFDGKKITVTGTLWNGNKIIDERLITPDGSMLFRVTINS

Compared with `Cc1ccc(S(=O)(=O)Nc2ccccc2C(=O)Nc2cc3ccccc3s2)cc1` [HL-0005, N-(benzo[b]thiophen-2-yl)-2-((4-methylphenyl)sulfonamido)benzamide], `O=Cc1ccc(S(=O)(=O)Nc2ccccc2C(=O)Nc2cc3ccccc3s2)cc1` [HL-0038, N-(benzo[b]thiophen-2-yl)-2-((4-formylphenyl)sulfonamido)benzamide] is 11-fold higher in IC50: 3.9 nM for the first, 44 nM for the second. The first is the more potent here.

Going from `Cc1ccc(S(=O)(=O)Nc2ccccc2C(=O)NC2CCCCC2)cc1` [HL-0006, N-cyclohexyl-2-((4-methylphenyl)sulfonamido)benzamide] to `Cc1ccc(S(=O)(=O)Nc2ccccc2C(=O)N[C@H]2CC[C@H](C(=O)O)CC2)cc1` [HL-0012, trans-4-(2-((4-methylphenyl)sulfonamido)benzamido)cyclohexane-1-carboxylic acid], the IC50 rises from 210 nM to 490 nM (2.3-fold).

Compared with `Cc1ccc(S(=O)(=O)Nc2ccccc2C(=O)Nc2ccc3ccccc3c2)cc1` [HL-0007, 2-((4-methylphenyl)sulfonamido)-N-(naphthalen-2-yl)benzamide], `Cc1ccc(NC(=O)c2ccccc2NS(=O)(=O)c2ccc(C)cc2)cc1` [HL-0019, 2-((4-methylphenyl)sulfonamido)-N-(p-tolyl)benzamide] is 2.1-fold higher in IC50: 14 nM for the first, 29 nM for the second. The first is the more potent here.

First: Cc1ccc(S(=O)(=O)Nc2ccccc2C(=O)Nc2ccc3c(c2)CCCC3)cc1 [HL-0008, 2-((4-methylphenyl)sulfonamido)-N-(5,6,7,8-tetrahydronaphthalen-2-yl)benzamide]
Second: Cc1ccc(S(=O)(=O)Nc2ccccc2C(=O)Nc2cccc(C)c2)cc1 [HL-0044, 2-((4-methylphenyl)sulfonamido)-N-(m-tolyl)benzamide]
The IC50 of the first is 3.7-fold lower: 24 nM for the first, 88 nM for the second. The first is the more potent here.

Compared with `COC(=O)[C@H]1CC[C@H](NC(=O)c2ccccc2NS(=O)(=O)c2ccc(C)cc2)CC1` [HL-0009, methyl trans-4-(2-((4-methylphenyl)sulfonamido)benzamido)cyclohexane-1-carboxylate], `CCOC(=O)c1cccc(NC(=O)c2ccccc2NS(=O)(=O)c2ccc(C)cc2)c1` [HL-0026, ethyl 3-(2-((4-methylphenyl)sulfonamido)benzamido)benzoate] is 67-fold lower in IC50: 16000 nM for the first, 240 nM for the second. The second is the more potent here.

Going from `N#Cc1c(NC(=O)c2ccccc2NS(=O)(=O)c2ccccc2)sc2c1CCC2` [HL-0010, N-(3-cyano-5,6-dihydro-4H-cyclopenta[b]thiophen-2-yl)-2-(phenylsulfonamido)benzamide] to `Cc1cccc(S(=O)(=O)Nc2ccccc2C(=O)Nc2cc3ccccc3s2)c1` [HL-0041, N-(benzo[b]thiophen-2-yl)-2-((3-methylphenyl)sulfonamido)benzamide], the IC50 falls from 22 nM to 13 nM (1.7-fold).

Going from `CCOC(=O)Cc1ccc(NC(=O)c2ccccc2NS(=O)(=O)c2ccc(C)cc2)cc1` [HL-0023, ethyl 2-(4-(2-((4-methylphenyl)sulfonamido)benzamido)phenyl)acetate] to `CCCc1ccccc1NC(=O)c1ccccc1NS(=O)(=O)c1ccc(C)cc1` [HL-0059, 2-((4-methylphenyl)sulfonamido)-N-(2-propylphenyl)benzamide], the IC50 falls from 580 nM to 190 nM (3.1-fold).

Compared with `Cc1ccc(S(=O)(=O)Nc2ccccc2C(=O)Nc2cccc(C(C)C)c2)cc1` [HL-0025, N-(3-isopropylphenyl)-2-((4-methylphenyl)sulfonamido)benzamide], `Cc1ccc(S(=O)(=O)Nc2ccc(C)cc2C(=O)Nc2cc3ccccc3s2)cc1` [HL-0061, N-(benzo[b]thiophen-2-yl)-5-methyl-2-((4-methylphenyl)sulfonamido)benzamide] is 2.9-fold lower in IC50: 85 nM for the first, 29 nM for the second. The second is the more potent here.

Compared with `COC(=O)CCc1ccc(S(=O)(=O)Nc2ccccc2C(=O)Nc2cc3ccccc3s2)cc1` [HL-0040, methyl 3-(4-(N-(2-(benzo[b]thiophen-2-ylcarbamoyl)phenyl)sulfamoyl)phenyl)propanoate], `Cc1ccc(S(=O)(=O)Nc2cc3ccccc3cc2C(=O)Nc2cc3ccccc3s2)cc1` [HL-0057, N-(benzo[b]thiophen-2-yl)-3-((4-methylphenyl)sulfonamido)-2-naphthamide] is 7.8-fold lower in IC50: 430 nM for the first, 55 nM for the second. The second is the more potent here.
